Each structure is given as a SMILES string. pKi: −log10 of the molar value. A value given as a limit tells only on which side of the number the result lay.

The target in this test is T1, human GlyT1c transporter (Homo sapiens, UniProt P48067).
T1 construct: expressed in transfected cells; host or cells: CHO cells (recombinant; line hGlyT1c_5_CHO is named for the uptake assay)
T1 sequence (P48067 1-706): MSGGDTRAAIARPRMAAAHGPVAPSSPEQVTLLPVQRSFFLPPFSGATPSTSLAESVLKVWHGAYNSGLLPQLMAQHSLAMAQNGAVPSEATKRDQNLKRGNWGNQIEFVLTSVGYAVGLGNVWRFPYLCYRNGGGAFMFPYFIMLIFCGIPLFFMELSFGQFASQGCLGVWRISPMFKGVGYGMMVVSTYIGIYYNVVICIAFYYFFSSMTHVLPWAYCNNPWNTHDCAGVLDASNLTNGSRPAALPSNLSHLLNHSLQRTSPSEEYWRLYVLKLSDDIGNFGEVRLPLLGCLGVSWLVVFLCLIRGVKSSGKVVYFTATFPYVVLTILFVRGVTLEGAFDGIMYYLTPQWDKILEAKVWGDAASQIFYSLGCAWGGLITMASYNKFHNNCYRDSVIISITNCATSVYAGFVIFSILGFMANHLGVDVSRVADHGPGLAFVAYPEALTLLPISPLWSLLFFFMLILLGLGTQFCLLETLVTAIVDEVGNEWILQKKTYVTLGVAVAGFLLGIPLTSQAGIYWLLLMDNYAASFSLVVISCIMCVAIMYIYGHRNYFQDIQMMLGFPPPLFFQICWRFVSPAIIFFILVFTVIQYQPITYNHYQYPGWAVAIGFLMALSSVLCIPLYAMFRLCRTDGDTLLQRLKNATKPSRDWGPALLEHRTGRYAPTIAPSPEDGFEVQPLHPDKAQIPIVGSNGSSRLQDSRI
The test can be described thus: Radioligand binding assay using recombinant CHO cell membranes expressing human GlyT1. The settings on record: radioligand binding to human GlyT1c transporter-expressing membranes. The source says:
2. Radioligand binding assays using recombinant CHO cell membranes expressing human GlyT1: […]
What is called pKi is the Ki on a negative log10 scale, so that one unit is a factor of ten. As for `O=C(N[C@@H]1CN(S(=O)(=O)CC2CC2)C[C@H]1c1ccccc1)c1cccc(C(F)(F)F)c1Cl` (relative stereo) [Example 130, 2-chloro-N-{trans-1-[(cyclopropylmethyl)sulfonyl]-4-phenylpyrrolidin-3-yl}-3-(trifluoromethyl)benzamide], the pKi is less than 5.00.

Turning to `Cn1cnc(S(=O)(=O)N2C[C@@H](NCc3ccc(Cl)cc3Cl)[C@H](c3ccccn3)C2)c1` (relative stereo) [Example 307, trans-N-(2,4-dichlorobenzyl)-1-[(1-methyl-1H-imidazol-4-yl)sulfonyl]-4-(pyridin-2-yl)pyrrolidin-3-amine], the pKi is not below 7.00.

With `N#Cc1ccccc1S(=O)(=O)N1C[C@@H](Nc2cc(C(F)(F)F)ccn2)[C@H](c2ccccc2)C1` (relative stereo) [Example 525, 2-{[trans-3-phenyl-4-{[4-(trifluoromethyl)pyridin-2-yl]amino}pyrrolidin-1-yl]sulfonyl}benzonitrile], the pKi was not below 5.00.

As to `CCCCN(CCCC)C(=O)[C@@H]1CN(S(=O)(=O)c2cn(C)cn2)C[C@H]1c1ccc(F)cc1` (relative stereo) [Example 636, Trans-N,N-dibutyl-4-(4-fluorophenyl)-1-[(1-methyl-1H-imidazol-4-yl)sulfonyl]pyrrolidine-3-carboxamide], the pKi was not below 6.00.

As for `Cc1ccccc1CN[C@@H]1CN(S(=O)(=O)c2cn(C)cn2)C[C@H]1c1ccc(F)cc1` (relative stereo) [Example 153, trans-4-(4-fluorophenyl)-N-(2-methylbenzyl)-1-[(1-methyl-1H-imidazol-4-yl)sulfonyl]pyrrolidin-3-amine], the pKi was not below 6.00.

With `Cn1cnc(S(=O)(=O)N2C[C@H](Nc3cccc(OCc4ccccc4)c3)[C@@H](c3ccccc3)C2)c1` [Example 773, (3R,4S)-N-[3-(benzyloxy)phenyl]-1-[(1-methyl-1H-imidazol-4-yl)sulfonyl]-4-phenylpyrrolidin-3-amine], the pKi is not below 7.00.

With `Cn1cnc(S(=O)(=O)N2C[C@H](Nc3ccc4ccsc4c3)[C@@H](c3ccc(F)cc3)C2)c1` [Example 677, (3R,4S)-N-(1-benzothiophen-6-yl)-4-(4-fluorophenyl)-1-[(1-methyl-1H-imidazol-4-yl)sulfonyl]pyrrolidin-3-amine], the pKi was not below 6.00.

Consider `CC(=O)Nc1ccc(Cl)cc1N[C@@H]1CN(S(=O)(=O)c2cn(C)cn2)C[C@H]1c1ccc(F)cc1` (relative stereo) [Example 372, N-[4-chloro-2-({Trans-4-(4-fluorophenyl)-1-[(1-methyl-1H-imidazol-4-yl)sulfonyl]pyrrolidin-3-yl}amino)phenyl]acetamide], for which the pKi is not below 5.00.

Consider `CC(C)COc1cc(N[C@H]2CN(S(=O)(=O)c3cn(C)cn3)C[C@@H]2c2ccc(F)cc2)ncn1` [Example 718, N-{(3R,4S)-4-(4-fluorophenyl)-1-[(1-methyl-1H-imidazol-4-yl)sulfonyl]pyrrolidin-3-yl}-6-(2-methylpropoxy)pyrimidin-4-amine], for which the pKi was not below 7.00.

As for `CCCCOC(=O)O[C@@H]1CN(S(=O)(=O)c2cn(C)cn2)C[C@H]1c1ccc(F)cc1` [Example 697, butyl (3S,4R)-4-(4-fluorophenyl)-1-[(1-methyl-1H-imidazol-4-yl)sulfonyl]pyrrolidin-3-yl carbonate], the pKi was not below 6.00.

Consider `Cn1cnc(S(=O)(=O)N2C[C@H](NC(=O)Nc3ccccc3Cl)[C@@H](c3ccc(F)cc3)C2)c1` [Example 694, 1-(2-chlorophenyl)-3-{(3R,4S)-4-(4-fluorophenyl)-1-[(1-methyl-1H-imidazol-4-yl)sulfonyl]pyrrolidin-3-yl}urea], for which the pKi was not below 6.00.

For `Cn1cnc(S(=O)(=O)N2C[C@@H](Nc3ccc(C(F)(F)F)cc3)[C@H](c3cccc(F)c3)C2)c1` (relative stereo) [Example 190, trans-4-(3-fluorophenyl)-1-[(1-methyl-1H-imidazol-4-yl)sulfonyl] -N-[4-(trifluoromethyl)phenyl]pyrrolidin-3-amine], the pKi is not below 6.00.

`Cn1cnc(S(=O)(=O)N2C[C@H](Nc3ccc4c(c3)CCCC4)[C@@H](c3ccccc3)C2)c1` [Example 657, (3R,4S)-1-[(1-methyl-1H-imidazol-4-yl)sulfonyl]-4-phenyl-N-(5,6,7,8-tetrahydronaphthalen-2-yl)pyrrolidin-3-amine]: the pKi was not below 6.00.

`Cn1cnc(S(=O)(=O)N2C[C@@H]([C@@H]3CCCOC3)[C@H](Nc3cccc(Oc4ccccc4)c3)C2)c1` (mixture of isomers) [Example 786, trans-1-[(1-methyl-1H-imidazol-4-yl)sulfonyl]-N-(3-phenoxyphenyl)-4-[(3S)-tetrahydro-2H-pyran-3-yl]pyrrolidin-3-amine]: the pKi was not below 6.00.

As to `Cn1cnc(S(=O)(=O)N2C[C@H](Nc3cc(C(F)(F)F)c(Cl)cn3)[C@@H](c3ccc(F)cc3)C2)c1` [Example 617, 5-chloro-N-{(3R,4S)-4-(4-fluorophenyl)-1-[(1-methyl-1H-imidazol-4-yl)sulfonyl]pyrrolidin-3-yl}-4-(trifluoromethyl)pyridin-2-amine], the pKi was not below 8.00.

For `Cc1nn(C)c(Cl)c1S(=O)(=O)N1CC(Nc2ccc(F)c(F)c2)C(c2ccccc2)C1` (stereo not shown) [Example 486, 1-[(5-chloro-1,3-dimethyl-1H-pyrazol-4-yl)sulfonyl]-N-(3,4-difluorophenyl)-4-phenylpyrrolidin-3-amine], the pKi was not below 5.00.

For `Cn1cnc(S(=O)(=O)N2C[C@H](c3ccccc3)[C@H](Nc3ccccc3)C2)c1` (relative stereo) [Example 184, (cis)-1-[(1-methyl-1H-imidazol-4-yl)sulfonyl]-N,4-diphenylpyrrolidin-3-amine], the pKi was not below 5.00.

For the compound `Cn1cnc(S(=O)(=O)N2C[C@@H](C(=O)NCc3ccccc3)[C@H](c3ccc(F)cc3)C2)c1` (relative stereo) [Example 289, Trans-N-benzyl-4-(4-fluorophenyl)-1-[(1-methyl-1H-imidazol-4-yl)sulfonyl]pyrrolidine-3-carboxamide], the pKi is not below 6.00.

For the compound `Cn1cnc(S(=O)(=O)N2C[C@@H](Nc3ccc(C(F)(F)F)cc3)[C@H](c3ccccc3Cl)C2)c1` (relative stereo) [Example 256, trans-4-(2-chlorophenyl)-1-[(1-methyl-1H-imidazol-4-yl)sulfonyl]-N-[4-(trifluoromethyl)phenyl]pyrrolidin-3-amine], the pKi is not below 6.00.

Consider `Cn1cnc(S(=O)(=O)N2C[C@H](NCc3ccc(C(F)(F)F)cc3Cl)[C@@H](c3ccc(F)cc3)C2)c1` [Example 322, (3R,4S)-N-[2-chloro-4-(trifluoromethyl)benzyl]-4-(4-fluorophenyl)-1-[(1-methyl-1H-imidazol-4-yl)sulfonyl]pyrrolidin-3-amine], for which the pKi was not below 8.00.

Take `Cn1cnc(S(=O)(=O)N2C[C@@H](Nc3cc(C(F)(F)F)ncn3)[C@H](c3ccccc3)C2)c1` (relative stereo) [Example 240, N-{trans-1-[(1-methyl-1H-imidazol-4-yl)sulfonyl]-4-phenylpyrrolidin-3-yl} -6-(trifluoromethyl)pyrimidin-4-amine]: the pKi was not below 7.00.

On to `Cn1cnc(S(=O)(=O)N2C[C@@H](Nc3cccc(F)c3)[C@H](c3ccc(F)cc3)C2)c1` (relative stereo) [Example 91, trans-N-(3-fluorophenyl)-4-(4-fluorophenyl)-1-[(1-methyl-1H-imidazol-4-yl)sulfonyl]pyrrolidin-3-amine], for which the pKi was not below 7.00.

Source of the values: EP2970215B1, “PYRROLIDINE DERIVATIVES, PHARMACEUTICAL COMPOSITIONS CONTAINING THEM, AND THEIR USE IN THERAPY” (AbbVie Deutschland GmbH & Co. KG, priority 2013, dated 2014).
